From patent US12053473B2, “Benzylamino substituted quinazolines and derivatives as SOS1 inhibitors” (priority 2016, dated 2024)

Biological target: SOS1 and KRAS G12D (protein-protein interaction) (Homo sapiens, UniProt Q07889)
Experiment: KRAS::SOS1 AlphaScreen binding assay
Settings: not given
Method: KRAS::SOS1 AlphaScreen Binding Assay
Low IC50 values are indicative of high potency of the SOS1 inhibitor compound in this assay setting:
10 nM (final assay concentration) KRAS G12D, 10 μM (final assay concentration) GDP and 5 nM (final assay concentration) GST-SOS1 are mixed in assay buffer prior to use and kept at room temperature.
AlphaLSA Glutathione Acceptor Beads and AlphaScreen Streptavidin Donor Beads are mixed in assay buffer at a concentration of 10 μg/mL (final assay concentration) each prior to use and kept at room temperature.
Compounds are diluted to a final start concentration of 100 μM and are tested in duplicate. […] For compound a start concentration of 100 μM, 150 nL of compound solution is transferred per well in 11 concentrations in duplicate with serial 1:5 dilutions.
The assay is run using a fully automated robotic system in a darkened room below 100 Lux. 10 μL of KRAS::SOS1 GDP mix is added into columns 1-24 to the 150 nL of compound solution (final dilution in the assay 1:100, final DMSO concentration 1%).
After a 30 minute incubation time 5 μL of bead mix is added into columns 1-23. Plates are kept at room temperature in a darkened incubator. After a further 60 minute incubation, the signal is measured using a PerkinElmer Envision HTS Multilabel Reader using the AlphaScreen specifications from PerkinElmer. Each plate contains the following controls: • diluted DMSO+KRAS::SOS1 GDP mix+bead mix • diluted DMSO+KRAS::SOS1 GDP mix Result Calculation:
IC50 values are calculated and analyzed using a 4 parametric logistic model.

| SMILES | IC50 |
| --- | --- |
| Cc1nc(N[C@H](C)c2cccc(C(F)(F)F)c2)c2cc([C@]3(O)CC[C@@H](O)CC3)ccc2n1 [I-60] | 10 nM |
| COc1cc2nc(C)nc(N[C@H](C)c3cccc(C(F)(F)F)c3F)c2cc1[C@]1(O)CC[C@@H](O)CC1 [I-58] | 6 nM |

Same assay, conditions: assay buffer with 100 μM EDTA (values marked with an asterisk); read-out: IC50 (SOS1)

| SMILES | IC50 |
| --- | --- |
| Cc1nc(N[C@H](C)c2cccc(C(F)(F)F)c2)c2cc(C3CCNCC3)ccc2n1 [I-182] | 22 nM |
| COc1cc2nc(C)nc(N[C@H](C)c3cccc(S(C)(=O)=O)c3)c2cc1O[C@H]1CCOC1 [I-3] | 47 nM |
| Cc1cccc([C@@H](C)Nc2nc(C)nc3ccc(C4CCS(=O)(=O)CC4)cc23)c1 [I-161] | 29 nM |
| Cc1nc(N[C@H](C)c2cccc(C(F)(F)F)c2)c2cc(-c3cnn(C4CCNCC4)c3)ccc2n1 [I-168] | 48 nM |
| Cc1nc(N[C@H](C)c2cccc(C(F)(F)F)c2)c2cc(C3=CCNCC3)ccc2n1 [I-171] | 18 nM |

Same assay, conditions: assay buffer without EDTA (values not marked with an asterisk); read-out: IC50 (SOS1)

| SMILES | IC50 |
| --- | --- |
| Cc1nc(N[C@H](C)c2cccc(C(F)(F)F)c2)c2cc([C@]3(O)CC[C@H](C(=O)N(C)C)CC3)ccc2n1 [I-78] | 27 nM |
| COc1cc2nc(C)nc(N[C@H](C)c3cccc(C(F)(F)CO)c3)c2cc1O[C@H]1CCOC1 [I-1] | 3 nM |
| Cc1cccc([C@@H](C)Nc2nc(C)nc3c(C)cc(C4CCN(C(C)C)CC4)cc23)c1 [I-289] | 18 nM |
| Cc1nc(N[C@H](C)c2cccc(C(F)(F)F)c2)c2cc(C3(O)CCS(=O)(=O)CC3)ccc2n1 [I-21] | 20 nM |
| Cc1cccc([C@@H](C)Nc2nc(C)nc3c(C)cc(C4CCN(CC(=O)O)CC4)cc23)c1 [I-292] | 28 nM |
| Cc1nc(N[C@H](C)c2cccc(C(F)(F)F)c2)c2cc(C3CCN(CC(=O)O)CC3)ccc2n1 [I-293] | 11 nM |
| COc1cc2nc(C)nc(N[C@H](C)c3cccc(C(F)(F)F)c3)c2cc1-c1ccc(C(=O)N(C)C)nc1 [I-189] | 23 nM |
| COc1cc2nc(C)nc(N[C@H](C)c3cccc(C(F)(F)F)c3)c2cc1C1(O)CCN(C(C)=O)CC1 [I-44] | 4 nM |
| COc1cc2nc(C)nc(N[C@H](C)c3cccc(C(F)(F)F)c3F)c2cc1C1(O)CCC(C(=O)N(C)C)CC1 (some centres unmarked) [I-77] | 5 nM |
| COc1cc2nc(C)nc(N[C@H](C)c3cccc(C4(O)COC4)c3)c2cc1C1CCN(C(C)=O)CC1 [I-167] | 18 nM |

Same assay, conditions: read-out: IC50 (SOS1)

| SMILES | IC50 |
| --- | --- |
| COCC(=O)N1CC=C(c2ccc3nc(C)nc(N[C@H](C)c4cc(N)cc(C(F)(F)F)c4)c3c2)CC1 [I-220] | 3 nM |
| COc1cc2nc(C)nc(N[C@H](C)c3cccc(C(F)(F)F)c3)c2cc1C1CCN(C(C)=O)CC1 [I-308] | 9 nM |
| COc1cc2nc(C)nc(N[C@H](C)c3cc(N)cc(C(F)(F)F)c3F)c2cc1C1CCN(C(C)=O)CC1 [I-278] | 2 nM |
| Cc1nc(N[C@H](C)c2cc(N)cc(C(F)(F)F)c2)c2cc([C@H]3CC[C@@H](C(=O)N(C)[C@@H]4CCOC4)CC3)ccc2n1 [I-243] | 9 nM |
| COCCN(C)C(=O)[C@H]1CC[C@@H](c2ccc3nc(C)nc(N[C@H](C)c4cc(N)cc(C(F)(F)F)c4)c3c2)CC1 [I-237] | 9 nM |
| COc1cc2nc(C)nc(N[C@H](C)c3cc(N)cc(C(F)(F)F)c3)c2cc1-c1ccc(=O)n(C(C)C)c1 [I-351] | 13 nM |
| Cc1nc(N[C@H](C)c2cc(N)cc(C(F)(F)F)c2)c2cc([C@H]3CC[C@@H](C(=O)N4CCN(C)CC4)CC3)cc(C)c2n1 [I-362] | 8 nM |
| Cc1nc(N[C@H](C)c2cc(N)cc(C(F)(F)F)c2)c2cc(C3CCS(=O)(=O)CC3)c(C)cc2n1 [I-321] | 3 nM |
| Cc1nc(N[C@H](C)c2cc(N)cc(C(F)(F)F)c2)c2cc([C@H]3CC[C@H](C(=O)N4CCOCC4)CC3)ccc2n1 [I-234] | 2 nM |
| Cc1nc(N[C@H](C)c2cc(N)cc(C(F)(F)F)c2)c2cc(C3=CCS(=O)(=O)CC3)cc(C)c2n1 [I-364] | 11 nM |
| COCC(=O)N1CC=C(c2cc3c(N[C@H](C)c4cccc(C(F)(F)CO)c4)nc(C)nc3cc2OC)CC1 [I-286] | 2 nM |
| Cc1nc(N[C@H](C)c2cccc(C(F)(F)F)c2)c2cc([C@H]3CC[C@H](C(=O)N4CC(F)C4)CC3)ccc2n1 [I-231] | 19 nM |
| CC(=O)N1CCC(c2ccc3nc(C)nc(N[C@H](C)c4cccc(C(F)(F)F)c4)c3c2)CC1 [I-280] | 17 nM |
| Cc1nc(N[C@H](C)c2cc(N)cc(C(F)(F)F)c2)c2cc([C@H]3CC[C@@H](C(=O)N(C)[C@H]4CCOC4)CC3)ccc2n1 [I-251] | 10 nM |
| COc1cc2nc(C)nc(N[C@H](C)c3cc(N)cc(C(F)(F)F)c3)c2cc1[C@H]1CC[C@H](C(=O)N2CCOCC2)CC1 [I-359] | 2 nM |
| Cc1nc(N[C@H](C)c2cc(N)cc(C(F)(F)F)c2)c2cc([C@H]3CC[C@H](C(=O)N4CCN(C)CC4)CC3)cc(C)c2n1 [I-361] | 5 nM |
| COc1cc2nc(C)nc(N[C@H](C)c3cccc(C)c3)c2cc1C1CCS(=O)(=O)CC1 [I-312] | 18 nM |
| COCC(=O)N1CCC(c2ccc3nc(C)nc(N[C@H](C)c4cc(N)cc(C(F)(F)F)c4)c3c2)CC1 [I-314] | 2 nM |
| CC(=O)N1CCC(c2cc3c(N[C@H](C)c4cccc(C)c4)nc(C)nc3cc2C)CC1 [I-271] | 24 nM |
| Cc1nc(N[C@H](C)c2cc(N)cc(C(F)(F)F)c2)c2cc([C@H]3CC[C@@H](C(=O)N(C)CCO)CC3)ccc2n1 [I-253] | 7 nM |
| Cc1nc(N[C@H](C)c2cc(N)cc(C(F)(F)F)c2)c2cc([C@H]3CC[C@@H](C(=O)N(C)C[C@H](C)O)CC3)ccc2n1 [I-255] | 8 nM |
| CNC(=O)CC(C)c1cc2c(N[C@H](C)c3cccc(C(F)(F)F)c3)nc(C)nc2cc1OC (some centres unmarked) [I-381] | 17 nM |
| COc1cc2nc(C)nc(N[C@H](C)c3cccc(C(F)(F)CO)c3)c2cc1C1=CCN(C(C)=O)CC1 [I-287] | 2 nM |
| Cc1nc(N[C@H](C)c2cccc(C(F)(F)F)c2)c2cc([C@H]3CC[C@H](C(=O)N(C)C)CC3)ccc2n1 [I-229] | 7 nM |
| COc1cc2nc(C)nc(N[C@H](C)c3cccc(C(F)(F)F)c3)c2cc1C(C)CC(=O)NC1CC1 (some centres unmarked) [I-383] | 21 nM |
| CNC(=O)CC(C)c1ccc2nc(C)nc(N[C@H](C)c3cccc(C(F)(F)F)c3)c2c1 (some centres unmarked) [I-375] | 36 nM |

Same assay, conditions: read-out: IC50 (SOS1); assay buffer without EDTA (values not marked with an asterisk)

| SMILES | IC50 |
| --- | --- |
| COc1cc2nc(C)nc(N[C@H](C)c3cccc(C(F)(F)F)c3)c2cc1C1(O)CCC(C(=O)N(C)C[C@H](C)O)CC1 (some centres unmarked) [I-73] | 41 nM |

Same assay, conditions: values marked with * in the table; read-out: IC50 (SOS1)

| SMILES | IC50 |
| --- | --- |
| Cc1nc(N[C@H](C)c2cccc(C(F)(F)F)c2)c2cc(-c3cc4n(n3)CCC(=O)N4)ccc2n1 [I-88] | 30 nM |
| Cc1nc(N[C@H](C)c2cccc(C(F)(F)F)c2)c2cc(-c3ccn(CC(=O)N(C)C)c(=O)c3)ccc2n1 [I-337] | 37 nM |
| Cc1nc(N[C@H](C)c2cccc(C(F)(F)F)c2)c2cc(-c3cc4n(n3)CCC(=O)N4)c(C)cc2n1 [I-89] | 34 nM |
| Cc1cccc([C@@H](C)Nc2nc(C)nc3ccc(-c4ccc(=O)[nH]c4)cc23)c1 [I-99] | 29 nM |
| Cc1nc(N[C@H](C)c2cccc(C(F)(F)F)c2)c2cc(-c3cnn(CC(=O)N(C)C)c3)ccc2n1 [I-85] | 41 nM |
| COCC(=O)N1CCC(n2cc(-c3ccc4nc(C)nc(N[C@H](C)c5cccc(C)c5)c4c3)cn2)CC1 [I-219] | 34 nM |
| Cc1cccc([C@@H](C)Nc2nc(C)nc3ccc([C@H]4CC[S@@](=N)(=O)CC4)cc23)c1 [I-331] | 25 nM |
| COc1cc2nc(C)nc(N[C@H](C)c3cccc(C)c3)c2cc1-c1ccn(CC(=O)N(C)C)c(=O)c1 [I-338] | 39 nM |
| Cc1cccc([C@@H](C)Nc2nc(C)nc3ccc(-c4cc5n(n4)CCC(=O)N5)cc23)c1 [I-87] | 18 nM |
